# Assay results: patent US20240108634A1, “COMPOSITIONS AND METHODS FOR INHIBITING YAP” (The United States Government as represented by the …, priority 2021, published 2024)
# Experiments:
# [1] = system: YAP localization; test: YAP cytoplasmic/nuclear localization (cell fractionation and immunofluorescence); format: cell-based, human; settings: 50 nM, 6 h
# Method: Levels of total YAP were determined via ELISA. […] Immunoprecipitates were immunoblotted for the indicated proteins. […] Cells were treated with the indicated concentrations of inhibitor for 18 h and mRNA extracted for real time RT-PCR analyses. Measurements were performed in quadruplicate and means and+S.D. are shown. […] […] Cytoplasmic versus nuclear material was subsequently immunoblotted for the indicated proteins. […] Values in top right corner of panels correspond to the percentage of nuclear localized YAP. Cells were grown on coverslips and treated with NSC682769. Cells were permeabilized and stained using primary antibody to YAP1 and FITC-conjugated secondary. Nuclei were stained with DAPI. Scale bar, 20 μm.
# Surface plasmon resonance (SPR), ELISA, YAP-TEAD reporter activity, cellular fractionation, and immunofluorescence analyses. SPR experiments were carried out on a Nicoya OpenSPR™ instrument using immobilized YAP on a carboxyl-coated sensor. Binding was observed as the change in response units (RU) as analyte was injected at a flow rate of 10 μl/min at 25° C. TraceDrawer™ was used for kinetic analyses. The PathScan® total-YAP ELISA kit was obtained from Cell Signaling and used according to the manufacturer's instructions. YAP-TEAD reporter activity was determined as previously described (Kim N G, Gumbiner B M (2015) J Cell Biol 210: 503-515). HOP-flash contains multiple copies of wild-type TEAD-binding sites with a minimal promoter upstream of a luciferase reporter gene. Luciferase activity was measured via a luciferase assay system (Promega). Nuclear-cytoplasmic fractionation was performed according to Dignam et al. (Dignam J D, et al. (1983) Nucleic Acids Res 11: 1475-1489). Briefly, the buffers used were kept on ice and centrifugations were done at 4° C. with soft braking. After a single wash with PBS, cells were scraped with PBS (containing 1 mM DTT and 1× protease inhibitor) and harvested by centrifugation at 1000×g for 15 min. […] Cell lysis was monitored by trypan blue staining. […]
# [2] = system: normal human neurons; test: TUNEL staining of normal human neurons; format: cell-based; settings: 48 h exposures
# From the text: Data shown are mean+S.D., n=3.
# Materials and Methods. Cell culture, vectors and reagents. Normal mature human neurons were obtained from ScienCell (Carlsbad, CA). Lines were routinely tested to confirm the absence of mycoplasma and authenticated by short tandem repeat profiling (ATCC). The myc-tagged TEAD (pRK5-Myc-TEAD1) and HA-tagged YAP1 (pCl-HA-YAP) vectors were used for mammalian expression and TEAD was subcloned into pGEX-2TK, while YAP was subcloned into pET-14b for bacterial expression and purification. DNA transfections were performed using Effectene transfection reagent according to the manufacturer (QIAGEN) and lentiviral transductions were performed as previously described (Rosenbluh J, et al. (2012) Cell 151: 1457-1473). Large-scale syntheses of NSC682769 was performed by New England Discovery Partners, Branford, CT. The other reagents including kits for ALT, AST and creatinine level determinations were from Sigma-Aldrich.
# [3] = system: LN229 and GBM39 cells; test: Annexin V-FITC/PI apoptosis by flow cytometry; format: cell-based, human; settings: LN229 and GBM39, 48 h
# From the text: Cells were layered in soft agar to evaluate anchorage-independent growth in the presence of the indicated concentrations of inhibitor and colonies counted following 14 days of growth. Representative crystal violet stained images are shown below. Data represent mean+S.D. of three independent experiments. […] Cells were placed in Boyden chambers and allowed to migrate towards BSA (white bars), vitronectin (light yellow bars), or fibronectin (dark yellow bars) (*, P<0.05; n=3). […] Representative crystal violet stained images are shown (200×). Data represent mean+S.D. of three independent experiments. […] Graphical data shown below represent mean+S.D. (late apoptosis; annexin V-positive, PI-positive) of three independent experiments.
# Cell proliferation, clonogenic, migration, invasion and apoptosis assays. Cell proliferation was determined via Cell Titer-Glo® luminescent cell assays (Promega). Clonogenic assays were done by plating a total of 1,000 cells per well in 24-well plates in a total volume of 400 μL using a two-layered soft agar system as previously described (Masri J, et al. (2007) Cancer Res 67: 11712-11720). Cell migration assays were conducted using precoated modified Boyden chambers as previously described (Benavides-Serrato A, et al. (2017) PLoS One 12: e0176599). […]
smiles,measurement,setting,value
COc1ccc(-c2cc(-c3ccccc3)nc3c2CC(=O)Nc2ccccc2-3)cc1OC [NSC682769],Relative amount of nuclear YAP (immunofluorescence),"[1]; GBM39 cells, untreated 53%",19%
same,Relative amount of nuclear YAP (immunofluorescence),"[1]; LN229 cells, untreated 67%",26%
same,Nuclear versus cytoplasmic YAP by cell fractionation,[1]; LN229 or GBM39 cells,reduction of nuclear YAP and a concomitant accumulation of cytoplasmic YAP
same,Toxicity to normal human neurons,[2],minimal toxicity
same,Apoptosis,[3],enhanced
